In patent publication US20220348590A1, “CYCLOOXYGENASE-2 INHIBITORS AND USES THEREOF” (The Board Institute, Inc., priority 2019, published 2022):
pIC50: −log10 of the molar value. Converted amounts (≈) assume the structure as drawn. Where two headings read alike, the source gives them in different places.

Columns and labels:
PBS Solubility (no DMSO) = format: physicochemical; settings: aqueous buffer, thermodynamic from solid, average
ovine COX-1 (oCOX-1) = molecular target: T1, ovine COX-1 (oCOX-1) (Ovis aries, UniProt P05979); assay: LCMS-based COX-1 enzymatic inhibition assay (PGE2 quantification); format: biochemical
T1 construct: purchased Cayman Chemicals (Ann Arbor, Mich.)
T1 sequence (P05979 25-600): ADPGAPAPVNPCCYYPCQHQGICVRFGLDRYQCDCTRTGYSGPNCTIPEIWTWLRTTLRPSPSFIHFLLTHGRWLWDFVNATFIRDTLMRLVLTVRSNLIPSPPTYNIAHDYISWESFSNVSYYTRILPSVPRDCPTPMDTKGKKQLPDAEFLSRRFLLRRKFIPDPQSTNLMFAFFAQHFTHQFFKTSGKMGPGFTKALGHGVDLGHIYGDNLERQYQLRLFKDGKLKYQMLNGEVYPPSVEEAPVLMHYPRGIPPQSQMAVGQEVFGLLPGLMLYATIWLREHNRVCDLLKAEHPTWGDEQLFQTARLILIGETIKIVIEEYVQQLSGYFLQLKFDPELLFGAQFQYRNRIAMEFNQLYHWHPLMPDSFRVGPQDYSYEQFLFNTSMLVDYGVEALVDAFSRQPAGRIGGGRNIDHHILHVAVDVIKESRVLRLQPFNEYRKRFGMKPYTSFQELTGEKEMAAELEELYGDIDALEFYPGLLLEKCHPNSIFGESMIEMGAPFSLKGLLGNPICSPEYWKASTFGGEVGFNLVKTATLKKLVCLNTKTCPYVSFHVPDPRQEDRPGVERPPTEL
Method in brief: (§1)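 PGE2 formed from arachidonic acid (final 5 μM, 2 min) was measured by LC-MS-MS against DMSO controls. Enzyme (oCOX-1 0.1 μg or hCOX2 0.2 μg) with hematin/epinephrine cofactors at pH 8.0 was given 10 min at 37 °C with compound first. Twelve-point curves run three times gave IC50.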

[1] = mouse plasma protein binding (PPB) assay; format: in vitro ADME; settings: average, read-out: Mouse Plasma Protein Binding % Bound Avg (converted)
Protocol: (§2) We have adapted a previously reported cyclooxygenase enzymatic assay utilizing LCMS quantification of PGE2 as the product of COX-1 and COX2 catalyzed conversion of arachidonic acid to evaluate the binding properties of newly synthesized ligands [Cao, 2011]. These optimized and miniaturized (384-well plates) LCMS-based COX-1 and COX2 enzymatic assays enabled us to quickly evaluate newly synthesized ligands for COX2 binding affinity and selectivity vs COX-1. Using a shorter ligand-enzyme incubation time in the LCMS assay (2 minutes vs 10 minutes) also permitted us to prioritize ligands with faster binding kinetics. Considering the relatively slow on-rate kinetics of known coxibs, due to their 3-step binding mechanism [Marnett, 2009], we believe that optimizing this critical parameter will be key to the successful development of a COX2 PET tracer. Using these enzymatic assays, we have evaluated>200 newly synthesized ligands against COX2 and >20 ligands against COX-1. Another critical property necessary for a good PET radiotracer is to have low non-specific binding (NSB) to increase the free fraction and maximize the signal to noise ratio. This property can be evaluated using in-vitro protein binding assays, and we have now evaluated>50 newly synthesized ligands in mouse, rat and human plasma protein binding (PPB) assays as well as >15 ligands in a mouse brain protein binding (BPB) assay.

[2] = molecular target: T2, human recombinant COX2 (hCOX2) (UniProt P35354); assay: LCMS-based COX2 enzymatic inhibition assay (PGE2 quantification); format: biochemical; set-up: COX2 2 minutes pge2/pge2d4 area ratio Avg; other: 2 minutes; readout pge2/pge2d4 area ratio; average; COX2 2 minutes pge2/pge2d4 area ratio Avg; LLE; average LLE; COX2 2 minutes pge2 area (counts) Avg; readout pge2 area (counts); other: 2 min; "ovine COX2 (oCOX2), human recombinant COX2 (hCOX2)"; settings: for COX2 2 minutes pge2/pge2d4 area ratio Avg. LLE / COX2 2 minutes pge2 area (counts) Avg. LLE / COX2 10 minutes pge2 area (counts) Avg. LLE: average LLE; for pIC50: average
T2 sequence (P35354 1-604): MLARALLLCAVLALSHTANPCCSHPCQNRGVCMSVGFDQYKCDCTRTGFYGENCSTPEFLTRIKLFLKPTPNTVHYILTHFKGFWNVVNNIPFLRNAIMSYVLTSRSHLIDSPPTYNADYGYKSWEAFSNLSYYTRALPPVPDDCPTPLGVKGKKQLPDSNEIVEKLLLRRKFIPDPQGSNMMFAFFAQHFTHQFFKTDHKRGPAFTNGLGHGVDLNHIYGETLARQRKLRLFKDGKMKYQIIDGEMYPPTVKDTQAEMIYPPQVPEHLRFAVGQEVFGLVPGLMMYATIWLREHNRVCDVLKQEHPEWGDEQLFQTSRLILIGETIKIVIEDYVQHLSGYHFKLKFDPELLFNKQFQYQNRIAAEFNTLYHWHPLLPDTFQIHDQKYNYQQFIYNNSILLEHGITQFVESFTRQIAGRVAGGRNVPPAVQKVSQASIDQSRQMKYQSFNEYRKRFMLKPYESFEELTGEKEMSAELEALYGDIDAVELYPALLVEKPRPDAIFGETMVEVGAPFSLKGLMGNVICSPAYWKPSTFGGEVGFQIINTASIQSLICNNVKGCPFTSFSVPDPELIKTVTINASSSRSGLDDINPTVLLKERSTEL
Method in brief: as §1

[3] = Mouse Plasma Protein Stability (% Remaining); format: in vitro ADME; settings: average
[4] = Human Plasma Protein Stability (% Remaining); format: in vitro ADME; settings: average
[5] = Rat Plasma Protein Stability (% Remaining); format: in vitro ADME; settings: average
[6] = human plasma protein binding (PPB) assay; format: in vitro ADME; settings: average, read-out: Human Plasma Protein Binding % Bound Avg (converted)
Protocol: as §2

[7] = rat plasma protein binding (PPB) assay; format: in vitro ADME; settings: average, read-out: Rat Plasma Protein Binding % Bound Avg (converted)
Protocol: as §2

[8] = Human Microsome Stability; format: in vitro ADME; settings: human microsomes
Rat Microsome Stability = format: in vitro ADME; settings: rat microsomes
MDR1 = assay: MDR1-MDCKII permeability and efflux; format: in vitro ADME; settings: dog, MDCK-MDR1
[9] = 10 minutes, readout pge2/pge2d4 area ratio, average LLE
[10] = 10 minutes, readout pge2/pge2d4 area ratio, average, read-out: COX1 10 minutes pge2/pge2d4 area ratio Avg. IC50
[11] = 10 minutes, readout pge2 area (counts), average LLE
[12] = 10 minutes, readout pge2 area (counts), average, read-out: COX1 10 minutes pge2 area (counts) Avg. IC50
[13] = 2 minutes, readout pge2/pge2d4 area ratio
[14] = 2 minutes, readout pge2/pge2d4 area ratio, read-out: COX2 2 minutes pge2/pge2d4 area ratio Avg. IC50
[15] = 2 minutes, readout pge2 area (counts)
[16] = 2 minutes, readout pge2 area (counts), read-out: COX2 2 minutes pge2 area (counts) Avg. IC50
[17] = 10 minutes, readout pge2 area (counts)
[18] = 10 minutes, readout pge2 area (counts), read-out: COX2 10 minutes pge2 area (counts) Avg. IC50

SMILES | solubility (PBS Solubility (no DMSO)) [µM] | COX1 10 minutes pge2/pge2d4 area ratio Avg. LLE (ovine COX-1 (oCOX-1); [9]) | pIC50 (ovine COX-1 (oCOX-1); [10]) | COX1 10 minutes pge2 area (counts) Avg. LLE (ovine COX-1 (oCOX-1); [11]) | pIC50 (ovine COX-1 (oCOX-1); [12]) | fraction unbound [1] | COX2 2 minutes pge2/pge2d4 area ratio Avg. LLE [2, 13] | pIC50 [2, 14] | COX2 2 minutes pge2 area (counts) Avg. LLE [2, 15] | pIC50 [2, 16] | Mouse Plasma Protein Stability % Remaining Avg [3] [%] | Rat Plasma Protein Stability % Remaining Avg [5] [%] | fraction unbound [7] | further results
NS(=O)(=O)c1ccc(-c2cncc(OCc3cccs3)n2)cc1 [Compound 3] | 8.5 (≈ 2.95 µg/mL) | 4.28 | 5.96 | 4.323 | 6.04 | 0.015 | 6.484 | 8.26 | 6.512 | 8.27 | 94.9 | – | – | –
CS(=O)(=O)c1ccc(-c2nc(OCc3cccs3)cc3ccoc23)cc1 [Compound 5] | – | – | – | – | – | – | – | 8.22 | – | 8.15 | – | 99 | 0.001 | Human Plasma Protein Stability % Remaining Avg [4]: 102%; fraction unbound [6]: 0.001
Cc1ccsc1CNc1cccc(-c2ccc(S(C)(=O)=O)cc2)n1 [Compound 7] | – | 0.564 | – | 0.564 | – | 0.015 | 4.522 | 8.20 | 4.509 | 8.15 | 97.8 | – | – | pIC50 (ovine COX-1 (oCOX-1)): 4.28
CCOc1ncc(NCc2cccs2)nc1-c1ccc(S(C)(=O)=O)cc1 [Compound 25] | – | 1.374 | – | 1.374 | – | 0.015 | 5.041 | 7.93 | 4.857 | 7.71 | 93.1 | – | – | pIC50 (ovine COX-1 (oCOX-1)): 4.28
CS(=O)(=O)c1ccc(-c2ccc3ccn(Cc4ccoc4)c3n2)cc1 [Compound 26] | – | 0.9493 | 4.94 | 0.6431 | 4.78 | 0.018 | 3.778 | 7.92 | 3.652 | 7.78 | 97.5 | – | – | Human Microsome Stability % Remaining Avg [8]: 43%
CS(=O)(=O)c1ccc(-c2nc(NCc3ccoc3)ccc2F)cc1 [Compound 48] | 40 (≈ 13.9 µg/mL) | – | – | – | – | – | – | 7.66 | – | 7.70 | – | 128 | 0.031 | Human Plasma Protein Stability % Remaining Avg [4]: 96%; fraction unbound [6]: 0.02; Human Microsome Stability % Remaining Avg [8]: 34%

The remaining molecules from weak to strong by pIC50 [2, 14], led by results:

solubility (PBS Solubility (no DMSO)) [µM] | COX1 10 minutes pge2/pge2d4 area ratio Avg. LLE (ovine COX-1 (oCOX-1); [9]) | pIC50 (ovine COX-1 (oCOX-1); [10]) | COX1 10 minutes pge2 area (counts) Avg. LLE (ovine COX-1 (oCOX-1); [11]) | pIC50 (ovine COX-1 (oCOX-1); [12]) | fraction unbound [1] | COX2 2 minutes pge2/pge2d4 area ratio Avg. LLE [2, 13] | pIC50 [2, 14] | COX2 2 minutes pge2 area (counts) Avg. LLE [2, 15] | pIC50 [2, 16] | Mouse Plasma Protein Stability % Remaining Avg [3] [%] | Rat Plasma Protein Stability % Remaining Avg [5] [%] | fraction unbound [7] | SMILES | further results
– | – | 6.52 | – | – | – | 3.899 | 7.36 | 3.894 | 7.32 | – | – | – | CS(=O)(=O)c1ccc(-c2cnc3ccn(Cc4cccs4)c3n2)cc1 [Compound 74] | COX1 10 minutes pge2/pge2d4 area ratio Avg. LLE (ovine COX-1 (oCOX-1); 10 minutes, pge2/pge2d4 area ratio, head of this section not shown, inferred): 3.046; COX1 10 minutes pge2 area (counts) Avg. LLE (ovine COX-1 (oCOX-1); 10 minutes, pge2 area (counts), head of this section not shown, inferred): 2.996; pIC50 (ovine COX-1 (oCOX-1); 10 minutes, pge2 area (counts), head of this section not shown, inferred, read-out: COX1 10 minutes pge2 area (counts) Avg. IC50): 6.47; COX2 10 minutes pge2 area (counts) Avg. LLE [2, 17]: 5.561; pIC50 [2, 18]: 9.03; efflux ratio (MDR1): 1; Papp A→B (MDR1; A-B, read-out: MDR1-MCKII Papp A-B): 32.2 ×10⁻⁶ cm/s; Papp B→A (MDR1; B-A, read-out: MDR1-MCKII Papp B-A): 32 ×10⁻⁶ cm/s
– | 3.094 | 5.53 | 3.234 | 5.65 | 0.015 | 5.185 | 7.62 | 5.211 | 7.63 | 109.5 | – | – | CN(Cc1cccs1)c1cncc(-c2ccc(S(C)(=O)=O)cc2)n1 [Compound 51] | COX2 10 minutes pge2 area (counts) Avg. LLE [2, 17]: 6.088; pIC50 [2, 18]: 8.45
21 (≈ 7.55 µg/mL) | – | – | 2.44 | 4.37 | 0.046 | 5.827 | 7.71 | 5.859 | 7.73 | 102.6 | 107.3 | 0.028 | COc1ncc(NCc2ccco2)nc1-c1ccc(S(C)(=O)=O)cc1 [Compound 43] | Rat Microsome Stability % Remaining Avg (Rat Microsome Stability): 11.1%
– | 2.392 | 5.50 | 2.308 | 5.35 | 0.002 | 4.93 | 8.00 | 5.018 | 8.09 | 103.7 | – | – | CS(=O)(=O)c1ccc(-c2cncc(SCc3cccs3)n2)cc1 [Compound 18] | –
3.7 (≈ 1.28 µg/mL) | 0.4674 | 4.31 | – | – | – | 4.3 | 8.10 | 4.276 | 8.05 | – | 121 | 0.003 | CS(=O)(=O)c1ccc(-c2cccc(OCc3ccsc3)n2)cc1 [Compound 9] | Human Plasma Protein Stability % Remaining Avg [4]: 114%; fraction unbound [6]: 0.003; Human Microsome Stability % Remaining Avg [8]: 35%
